According to US20130079345A1, “[…] ACTIVE DISUBSTITUTED TRIAZINE DERIVATIVES” (BAYER INTELLECTUAL PROPERTY GMBH, priority 2010, published 2013):
Structures can show the parent of a compound that is named as a salt.

Assays:
CDK9/Cyclin T1 = target: T1, CDK9/Cyclin T1 (Homo sapiens, UniProt P50750); assay: LanthaScreen Eu Kinase Binding Assay, CDK9/Cyclin T1; settings: tracer 236, read-out: Affinity (Kd) CDK9/Cyclin T1
T1 construct: purchased Invitrogen
Method in brief: (§1)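 TR-FRET competition binding with Alexa Fluor 647 tracer and Eu-anti-GST antibody; e.g. CDK2/Cyclin A 15 nM with tracer 236 60 nM (working solutions). Kinase buffer: HEPES 20 mM pH 8.0, MgCl2 10 mM, DTT 1 mM, Brij-35 0.01%; 8-point 1:3 series, 1 h at room temperature; Kd from sigmoidal dose-response curves.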

CDK7/CyclinH/Mat1 [1] = target: T2, CDK7/CyclinH/Mat1 (Homo sapiens, UniProt P50613); assay: LanthaScreen Eu Kinase Binding Assay, CDK7; settings: tracer 236, read-out: Affinity (Kd) CDK7
T2 construct: purchased Carna Biosciences
T2 sequence (P50613 whole entry): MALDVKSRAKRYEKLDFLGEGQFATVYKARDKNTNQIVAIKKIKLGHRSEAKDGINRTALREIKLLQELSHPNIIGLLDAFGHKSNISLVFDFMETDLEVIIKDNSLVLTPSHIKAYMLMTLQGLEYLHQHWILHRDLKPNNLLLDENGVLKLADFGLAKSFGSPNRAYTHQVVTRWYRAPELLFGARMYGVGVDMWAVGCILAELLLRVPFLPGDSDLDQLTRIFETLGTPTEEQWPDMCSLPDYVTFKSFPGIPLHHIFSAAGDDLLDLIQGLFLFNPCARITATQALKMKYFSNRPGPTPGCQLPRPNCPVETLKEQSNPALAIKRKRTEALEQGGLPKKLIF
T2 sequence (P51946 whole entry partner): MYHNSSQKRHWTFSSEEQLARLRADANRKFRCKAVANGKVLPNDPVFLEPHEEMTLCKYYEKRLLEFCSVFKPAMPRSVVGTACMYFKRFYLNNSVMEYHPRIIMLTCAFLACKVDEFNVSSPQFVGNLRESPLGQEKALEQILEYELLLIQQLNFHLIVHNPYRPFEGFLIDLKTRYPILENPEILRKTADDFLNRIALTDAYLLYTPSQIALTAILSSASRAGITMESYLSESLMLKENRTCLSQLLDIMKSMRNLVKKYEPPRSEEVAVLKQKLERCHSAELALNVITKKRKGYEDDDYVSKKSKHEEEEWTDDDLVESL
T2 sequence (P51948 whole entry partner): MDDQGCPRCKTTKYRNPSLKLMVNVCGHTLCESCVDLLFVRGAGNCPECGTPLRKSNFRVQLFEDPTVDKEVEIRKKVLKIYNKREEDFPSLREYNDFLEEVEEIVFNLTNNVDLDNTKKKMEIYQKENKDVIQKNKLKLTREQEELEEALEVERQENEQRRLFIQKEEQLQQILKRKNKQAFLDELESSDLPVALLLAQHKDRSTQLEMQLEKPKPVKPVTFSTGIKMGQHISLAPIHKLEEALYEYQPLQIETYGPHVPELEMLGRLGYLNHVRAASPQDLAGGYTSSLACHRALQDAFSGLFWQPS
Method in brief: as §1

CDK9/Cyclin K = target: T3, CDK9/Cyclin K (Homo sapiens, UniProt P50750); assay: LanthaScreen Eu Kinase Binding Assay, CDK9/Cyclin K; settings: tracer 236, read-out: Affinity (Kd) CDK9/Cyclin K
T3 construct: purchased Invitrogen
T3 sequence (P50750 whole entry): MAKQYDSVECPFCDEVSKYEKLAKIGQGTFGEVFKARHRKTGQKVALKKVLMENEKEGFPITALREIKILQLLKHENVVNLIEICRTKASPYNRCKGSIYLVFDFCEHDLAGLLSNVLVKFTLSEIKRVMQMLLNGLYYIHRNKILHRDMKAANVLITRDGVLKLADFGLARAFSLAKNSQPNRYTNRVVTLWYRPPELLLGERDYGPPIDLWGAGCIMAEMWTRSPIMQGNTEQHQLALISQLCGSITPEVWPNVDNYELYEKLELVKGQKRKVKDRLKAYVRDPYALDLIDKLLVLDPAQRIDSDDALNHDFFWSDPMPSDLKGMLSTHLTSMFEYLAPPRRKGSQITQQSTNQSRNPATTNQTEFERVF
T3 sequence (O75909 whole entry partner): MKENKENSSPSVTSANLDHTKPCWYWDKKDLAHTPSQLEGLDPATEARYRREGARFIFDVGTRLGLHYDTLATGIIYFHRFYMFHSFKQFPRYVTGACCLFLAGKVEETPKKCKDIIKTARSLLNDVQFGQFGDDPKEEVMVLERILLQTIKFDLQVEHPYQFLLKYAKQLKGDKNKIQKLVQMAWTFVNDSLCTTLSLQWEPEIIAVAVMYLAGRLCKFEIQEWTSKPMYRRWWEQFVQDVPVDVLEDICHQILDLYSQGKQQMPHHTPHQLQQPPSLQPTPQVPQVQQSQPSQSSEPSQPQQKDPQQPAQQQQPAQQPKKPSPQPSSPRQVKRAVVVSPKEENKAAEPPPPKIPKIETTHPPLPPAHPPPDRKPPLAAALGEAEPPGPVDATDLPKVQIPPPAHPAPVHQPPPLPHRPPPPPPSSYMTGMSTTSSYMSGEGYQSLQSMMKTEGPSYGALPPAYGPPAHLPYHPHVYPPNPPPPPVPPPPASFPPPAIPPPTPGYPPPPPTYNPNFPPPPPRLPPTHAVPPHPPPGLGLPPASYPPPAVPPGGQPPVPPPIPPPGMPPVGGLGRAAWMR
Method in brief: as §1

CDK2/CyclinA = target: T4, CDK2/CyclinA (Homo sapiens, UniProt P24941); assay: LanthaScreen Eu Kinase Binding Assay, CDK2; settings: tracer 236, read-out: Affinity (Kd) CDK2
T4 construct: purchased Proqinase
Method in brief: as §1

CDK1/CyclinB1 = target: T5, CDK1/CyclinB1 (Homo sapiens, UniProt P06493); assay: Lance Ultra KinaSelect Assay, CDK1; type: biochemical; settings: ATP 20 μM, read-out: Inhibition (IC50) CDK1
T5 construct: purchased Carna
T5 sequence (P06493 whole entry): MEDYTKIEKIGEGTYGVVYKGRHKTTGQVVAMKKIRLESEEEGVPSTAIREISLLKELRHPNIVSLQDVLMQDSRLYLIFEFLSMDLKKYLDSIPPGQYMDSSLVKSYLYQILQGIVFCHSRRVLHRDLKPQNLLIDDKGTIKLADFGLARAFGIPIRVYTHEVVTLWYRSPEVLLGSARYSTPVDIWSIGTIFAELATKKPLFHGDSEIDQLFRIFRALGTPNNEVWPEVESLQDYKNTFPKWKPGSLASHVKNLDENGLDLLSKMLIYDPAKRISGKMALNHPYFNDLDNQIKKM
T5 sequence (P14635 whole entry partner): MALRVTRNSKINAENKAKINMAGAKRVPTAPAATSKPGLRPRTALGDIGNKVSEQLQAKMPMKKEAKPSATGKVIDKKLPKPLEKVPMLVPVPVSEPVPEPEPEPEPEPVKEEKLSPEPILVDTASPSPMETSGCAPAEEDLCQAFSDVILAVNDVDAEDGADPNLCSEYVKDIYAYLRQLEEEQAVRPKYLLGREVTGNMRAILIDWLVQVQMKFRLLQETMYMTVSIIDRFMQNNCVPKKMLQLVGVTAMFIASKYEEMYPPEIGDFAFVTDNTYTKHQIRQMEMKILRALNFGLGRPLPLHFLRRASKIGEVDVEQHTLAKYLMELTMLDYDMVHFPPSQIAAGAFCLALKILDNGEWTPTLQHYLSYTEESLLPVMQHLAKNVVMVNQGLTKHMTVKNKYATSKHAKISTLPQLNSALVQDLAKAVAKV
Description: (§2) This protocol describes how the Lance Ultra KinaSelect Assay was performed to determine half maximal inhibitory concentration (IC50) of compounds of general formula (I) and CDK/Cyclin complexes. The principle behind this enzymatic assay is based upon the phosphorylation of the ULight-Peptide Substrat. It is detected by using a specific EU-labeled anti-phospho peptide antibody. The binding of the Eu-labeled anti-phospho peptide antibody to the phosphorylated U Light labeled peptide gives rise to a FRET-signal. Binding of an inhibitor to the kinase prevents phosphorylation of the ULight-MBP Substrat, resulting in a loss of FRET.
(§3) The compounds of general formula (I) summarized in Table 5 were diluted from a 10 mM DMSO stock solution 1:10 in a total volume of 15 μL DMSO. This compound predilution was then serial diluted 1:3 over 8 steps in DMSO and briefly spun down. Each compound solution was now diluted 1:20 in Enzymatic Buffer (HEPES: 50 mM, pH: 7.5; MgCl2: 10 mM; EGTA: 1 mM; DTT: 2 mM; Tween-20: 0.01%), mixed thoroughly and spun down. For every sample, 2 μL of the diluted compound were mixed with 6 μL CDK/Cyclin/Substrat solution and […] in a well of a small volume 384 well plate (Corning Incorporated, Corning, N.Y., USA; order no. 3673). […] For positive controls, in each well 2 μL of DMSO solution (1% final DMSO assay concentration) was mixed with 6 μL CDK/Cyclin/Substrat (appropriate final concentration see Table 3) and 2 μL Tracer ATP solution (appropriate final concentration see Table 3). Positive and negative controls were calculated from at least 8 different sample wells. The 384 well plates were mixed in a Teleshaker plate mixer (Beckman Coulter, Brea, Calif., USA) at 2000 rpm for 40 sec, and incubated for 1 h at room temperature. Before reading, 10 μL detection buffer (Lance Detection Buffer 1×; EDTA: […]; Eu-Anti-P-MBP: see Table 3) was added. The FRET signal was measured at 340 nm excitation, 665 nm and 615 nm emission (for the kinase tracer and LanthaScreen Eu-AB, respectively) with an Envision spectrophotometer (Perkin Elmer, Waltham, Mass., USA) with 50 μs delay and 300 μs integration time. IC50 values were determined from the sigmoidal dose response curves with the software Quattro Workflow (Quattro GmbH, Munich, Germany).

CDK4/CyclinD1 = target: T6, CDK4/CyclinD1 (Homo sapiens, UniProt P11802); assay: Lance Ultra KinaSelect Assay, CDK4; type: biochemical; settings: ATP 90 μM, read-out: Inhibition (IC50) CDK4
T6 construct: purchased Invitrogen
T6 sequence (P11802 whole entry): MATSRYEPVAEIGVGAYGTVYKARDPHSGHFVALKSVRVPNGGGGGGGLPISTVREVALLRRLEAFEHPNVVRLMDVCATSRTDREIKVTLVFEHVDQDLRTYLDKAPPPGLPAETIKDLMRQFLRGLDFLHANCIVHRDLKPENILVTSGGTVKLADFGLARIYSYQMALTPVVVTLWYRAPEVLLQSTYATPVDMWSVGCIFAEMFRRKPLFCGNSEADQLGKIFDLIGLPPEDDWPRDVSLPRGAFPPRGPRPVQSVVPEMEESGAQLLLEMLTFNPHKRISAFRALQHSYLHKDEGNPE
T6 sequence (P24385 whole entry partner): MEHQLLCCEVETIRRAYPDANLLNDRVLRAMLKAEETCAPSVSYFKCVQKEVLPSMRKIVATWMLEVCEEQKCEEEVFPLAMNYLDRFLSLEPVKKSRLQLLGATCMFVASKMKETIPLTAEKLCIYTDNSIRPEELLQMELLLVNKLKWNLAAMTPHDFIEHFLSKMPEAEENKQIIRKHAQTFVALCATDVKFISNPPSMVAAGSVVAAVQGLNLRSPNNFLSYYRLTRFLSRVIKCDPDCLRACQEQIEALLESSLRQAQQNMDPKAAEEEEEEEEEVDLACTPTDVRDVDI
Description: as §2, §3

CDK7/CyclinH/Mat1 [2] = target: T2, CDK7/CyclinH/Mat1; assay: Lance Ultra KinaSelect Assay, CDK7; type: biochemical; settings: ATP 25 μM, read-out: Inhibition (IC50) CDK7
Description: as §2, §3

T1 sequence (P50750 whole entry): as the sequence (P50750 whole entry) above
T1 sequence (O60563 whole entry partner): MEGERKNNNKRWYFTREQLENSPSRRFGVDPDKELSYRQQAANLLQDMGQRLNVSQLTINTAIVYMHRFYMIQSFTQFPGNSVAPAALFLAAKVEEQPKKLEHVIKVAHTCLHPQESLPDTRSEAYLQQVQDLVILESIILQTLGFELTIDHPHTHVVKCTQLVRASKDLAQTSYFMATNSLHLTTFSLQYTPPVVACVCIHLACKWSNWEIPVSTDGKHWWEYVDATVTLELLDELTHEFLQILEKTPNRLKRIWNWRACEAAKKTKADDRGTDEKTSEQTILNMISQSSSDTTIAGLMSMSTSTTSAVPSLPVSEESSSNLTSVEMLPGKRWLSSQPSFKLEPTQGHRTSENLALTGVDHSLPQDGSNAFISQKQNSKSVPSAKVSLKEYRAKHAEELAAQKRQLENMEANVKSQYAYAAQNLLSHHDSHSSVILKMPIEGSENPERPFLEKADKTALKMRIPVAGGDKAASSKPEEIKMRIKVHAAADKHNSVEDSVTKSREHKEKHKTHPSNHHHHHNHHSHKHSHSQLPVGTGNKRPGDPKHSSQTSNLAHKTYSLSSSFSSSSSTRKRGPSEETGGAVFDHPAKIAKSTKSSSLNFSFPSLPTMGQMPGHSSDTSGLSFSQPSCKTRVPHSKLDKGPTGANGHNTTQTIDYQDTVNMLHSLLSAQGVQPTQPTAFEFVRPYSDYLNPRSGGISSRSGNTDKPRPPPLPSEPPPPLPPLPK

Kd (CDK9/Cyclin T1) | Kd (CDK7/CyclinH/Mat1 [1]) | Kd (CDK9/Cyclin K) | Kd (CDK2/CyclinA) | IC50 (CDK1/CyclinB1) | IC50 (CDK4/CyclinD1) | IC50 (CDK7/CyclinH/Mat1 [2]) | SMILES
5 nM | > 10000 nM |  |  |  |  |  | COc1cc(F)ccc1-c1ncnc(Nc2cccc(CS(N)(=O)=O)c2)n1 [Compound B2, 3-[(4-(4-Fluoro-2-methoxyphenyl)-1,3,5-triazin-2-yl)amino]benzenemethanesulfonamide]
10 nM | > 10000 nM | 11.1 nM | 2350 nM | 11500 nM | > 10000 nM | > 10000 nM | CCOc1ccccc1-c1ncnc(Nc2cccc(CS(N)(=O)=O)c2)n1 [Compound B12, 3-[(4-(2-Ethoxyphenyl)-1,3,5-triazin-2-yl)amino]benzenemethanesulfonamide]
9.5 nM | > 10000 nM | 5 nM | < 5 nM | > 10000 nM | > 10000 nM | > 10000 nM | COc1cc(F)ccc1-c1ncnc(Nc2cccc(CCS(N)(=O)=O)c2)n1 [Compound D2, 2-[3-((4-(4-Fluoro-2-methoxyphenyl)-1,3,5-triazin-2-yl)amino)phenyl]ethanesulfonamide]
5.5 nM |  | 5 nM | 88 nM | 3400 nM | 681 nM | > 10000 nM | NS(=O)(=O)Cc1cccc(Nc2ncnc(-c3ccccc3OCc3ccccc3)n2)c1 [B13′, 3-[(4-(2-Benzyloxyphenyl)-1,3,5-triazin-2-yl)amino]benzenemethanesulfonamide trifluoroacetic acid salt]
25.5 nM | > 10000 nM | 26.4 nM | 3450 nM |  |  |  | NS(=O)(=O)Cc1cccc(Nc2ncnc(-c3ccccc3Oc3ccccc3)n2)c1 [Compound B14, 1-(3-{[4-(2-phenoxyphenyl)-1,3,5-triazin-2-yl]amino}phenyl)methanesulfonamide]
5 nM | > 10000 nM |  |  |  |  |  | COc1ccccc1-c1ncnc(Nc2cccc(CS(N)(=O)=O)c2)n1 [Compound B1, 3-[(4-(2-Methoxyphenyl)-1,3,5-triazin-2-yl)amino]benzenemethanesulfonamide]
126 nM | > 30000 nM |  | 709 nM |  |  |  | COc1ccccc1-c1ncnc(Nc2ccccc2)n1 [Compound P1, 4-(2-Methoxyphenyl)-N-phenyl-1,3,5-triazine-2-amine]
7 nM | > 10000 nM | 11.5 nM |  |  |  |  | COc1cnccc1-c1ncnc(Nc2cccc(CS(N)(=O)=O)c2)n1 [Compound B19, 3-[(4-(3-Methoxypyridin-4-yl)-1,3,5-triazin-2-yl)amino]benzenemethanesulfonamide]
32.8 nM | > 10000 nM | 99.5 nM | 310 nM | 2580 nM | 9320 nM | > 10000 nM | COc1ccccc1-c1ncnc(Nc2cccc(CCS(N)(=O)=O)c2)n1 [Compound D1, 2-[3-((4-(2-Methoxyphenyl)-1,3,5-triazin-2-yl)amino)phenyl]ethanesulfonamide]
54 nM | > 10000 nM | 20.9 nM | 704 nM | 5680 nM | > 10000 nM | > 10000 nM | COc1cccc(F)c1-c1ncnc(Nc2cccc(CS(N)(=O)=O)c2)n1 [Compound B4, 3-[(4-(6-Fluoro-2-methoxyphenyl)-1,3,5-triazin-2-yl)amino]benzenemethanesulfonamide]
16 nM | > 10000 nM | 5 nM | 375 nM |  |  |  | COc1ccc(F)cc1-c1ncnc(Nc2cccc(CS(N)(=O)=O)c2)n1 [Compound B3, 3-[(4-(5-Fluoro-2-methoxyphenyl)-1,3,5-triazin-2-yl)amino]benzenemethanesulfonamide]
6.6 nM |  | 5 nM |  | 899 nM | 3210 nM | > 10000 nM | COc1cc(F)ccc1-c1ncnc(Nc2cccc(CS(N)(=O)=O)c2)n1 [B2″, 1-(3-{[4-(4-fluoro-2-methoxyphenyl)-1,3,5-triazin-2-yl]amino}phenyl)methanesulfonamide trifluoroacetic acid salt]
7.6 nM |  | 48.7 nM | 798 nM | 12000 nM | > 10000 nM | > 10000 nM | COc1ccccc1-c1ncnc(Nc2cccc(CS(N)(=O)=O)c2)n1 [B1′, 3-[(4-(2-Methoxyphenyl)-1,3,5-triazin-2-yl)amino]benzenemethanesulfonamide trifluoroacetic acid salt]
38.5 nM | > 30000 nM | 35.9 nM | 283 nM | > 10000 nM | > 10000 nM | > 10000 nM | COc1ccccc1-c1ncnc(Nc2cccc(NS(C)(=O)=O)c2)n1 [Compound K1, N-[3-((4-(2-Methoxyphenyl)-1,3,5-triazin-2-yl)amino)phenyl]-methanesulfonamide]
17.8 nM | > 30000 nM | 15.8 nM | 68 nM |  |  |  | COc1ccccc1-c1ncnc(Nc2cccc([N+](=O)[O-])c2)n1 [Compound H1, 4-(2-Methoxyphenyl)-N-(3-nitrophenyl)-1,3,5-triazine-2-amine]
5.6 nM |  |  | 207 nM |  |  |  | COc1cc(F)ccc1-c1ncnc(Nc2cccc(CS(N)(=O)=O)c2)n1 [B2′, 1-(3-{[4-(4-fluoro-2-methoxyphenyl)-1,3,5-triazin-2-yl]amino}phenyl)methanesulfonamide hydrochloride]
< 5 nM | > 10000 nM | 5 nM | 220 nM | 1350 nM | 1510 nM | > 10000 nM | COc1ccccc1-c1ncnc(Nc2cccc(S(N)(=O)=O)c2)n1 [C1′, 3-[(4-(2-Methoxyphenyl)-1,3,5-triazin-2-yl)amino]benzenesulfonamide trifluoroacetic acid salt]
11 nM | > 10000 nM | 12.5 nM |  | > 10000 nM | > 10000 nM | > 10000 nM | COc1cc(Cl)ccc1-c1ncnc(Nc2cccc(CS(N)(=O)=O)c2)n1 [Compound B6, 3-[(4-(4-Chloro-2-methoxyphenyl)-1,3,5-triazin-2-yl)amino]benzenemethanesulfonamide]
45.5 nM | > 30000 nM |  |  | > 10000 nM | > 10000 nM | > 10000 nM | CCCS(=O)(=O)Nc1cccc(Nc2ncnc(-c3ccccc3OC)n2)c1 [Compound L1, N-[3-((4-(2-Methoxyphenyl)-1,3,5-triazin-2-yl)amino)phenyl]-propanesulfonamide]
5 nM | > 10000 nM |  | 687 nM |  |  |  | NS(=O)(=O)Cc1cccc(Nc2ncnc(-c3ccccc3OCc3ccccc3)n2)c1 [Compound B13, 3-[(4-(2-Benzyloxyphenyl)-1,3,5-triazin-2-yl)amino]benzenemethanesulfonamide]
< 5 nM | > 10000 nM | 5.7 nM | 1690 nM | 6770 nM | > 10000 nM | > 10000 nM | NS(=O)(=O)Cc1cccc(Nc2ncnc(-c3ccccc3OCc3ccncc3)n2)c1 [Compound B16, 3-[(4-(2-((4-Pyridinyl)methoxy)phenyl)-1,3,5-triazin-2-yl)amino]benzenemethanesulfonamide]
